Earlier results as cited in patent US7652014B2, “Substituted 6-cyclohexylalkyl substituted 2-quinolinones and 2-quinoxalinones as poly(ADP-ribose) polymerase inhibitors” (Janssen Pharmaceutica, priority 2003, dated 2010).

Tests used:
[1] = tested on: colitis; details: rats, trinitrobenzene sulfonic acid induced colitis, distal colon; cited from earlier work
[2] = tested on: infarct size caused by ischemia and reperfusion of the heart; details: rabbits, cited from earlier work

SMILES | effect on inflammatory response in colitis [1] | reduction in infarct size in the heart ([2]; single injection 10 mg/kg, one minute before occlusion or one minute before reperfusion) | reduction in infarct size ([2]; single injection 1 mg/kg)
NC(=O)c1cccc(N)c1 [3-amino-benzamide] | reduced the inflammatory response | 32-42% | 
Oc1cccc2c(O)nccc12 [1,5-dihydroxyisoquinoline] |  |  | 38-48%
